# Experimental data: publication PMC6231237 (Journal of the American Chemical Society, 2018)
# *1 amine or outer side, *2 acyl side, *3 side chain or, on linkers, in order; H or OH if unused. Where a SMILES comes first, the peptide text is derived from it. Bridges are numbered along the chain shown (N, C = ends). [ ]: non-standard residue; d: D form. Trimesoyl = O=C(c1cc(C(=O)[*:2])cc(C(=O)[*:3])c1)[*:1]; 2Nal = N[C@@H](Cc1ccc2ccccc2c1)C(=O)O; Dap = NC[C@H](N)C(=O)O; βAla = NCCC(=O)O
# Assays:
# [1] = system: ovarian surface epithelial cells (OSE); assay: Methylene blue cell viability assay, OSE; format: cell-based; conditions: 72 h
# [2] = system: TNFα-induced NF-κB activation in HEK293(Luc) cells; assay: NF-κB luciferase assay, TNFα-induced; format: cell-based
# [3] = system: A2780 ovarian cancer cells; assay: Live-cell confocal microscopy of cell entry; format: cell-based; conditions: 5 μM FITC-labeled peptide, 2 h
# [4] = system: basal NF-κB activity in HEK293(Luc) cells; assay: NF-κB luciferase assay, basal; format: cell-based; conditions: absence of TNFα stimulation
# A375 melanoma cells = assay: Cell viability assay, A375; format: cell-based
# NEMO-IKKβ interaction = NEMO-IKKβ interaction (Homo sapiens, UniProt Q9Y6K9); assay: HTRF assay of inhibition of the NEMO-IKKβ interaction; format: binding; conditions: insertion of Ala N-terminal to the internal Dap, vs peptide 6
# NEMO-IKKβ interaction, sequence (Q9Y6K9 1-196): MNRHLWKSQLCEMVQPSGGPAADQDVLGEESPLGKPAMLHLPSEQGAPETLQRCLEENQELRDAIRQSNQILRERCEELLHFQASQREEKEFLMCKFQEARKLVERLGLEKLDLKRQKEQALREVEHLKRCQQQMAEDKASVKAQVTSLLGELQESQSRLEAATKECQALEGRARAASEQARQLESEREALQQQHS
# HT29 colon cancer cells = assay: Immunoblot analysis of IKKβ and IκBα levels; format: cell-based
# HeLa cells = assay: Flow cytometry analysis of cellular uptake of FITC-labeled peptides; format: cell-based; conditions: relative to CPP1
# [5] = biological target: panel of control proteins; assay: Fluorescence anisotropy; conditions: fluorescently labeled peptide, FA assay
# [6] = 0–25 μM, HT29 cells, TNFα, Western blot
Compound,effect on viability [1],IC50 [2] [µM],cell entry (fluorescence) [3],effect on basal NF-κB activity [4],increase in the basal NF-κB activity [4],effect on viability (A375 melanoma cells),increase of binding affinity (NEMO-IKKβ interaction) [fold],TNFα-induced phosphorylation of IKKβ (HT29 colon cancer cells; [6]),total intracellular IKKβ level (HT29 colon cancer cells; [6]),phospho-IKKβ or IκBα level (HT29 colon cancer cells; HT29 cells not stimulated with TNFα),"intracellular level of IκBα (HT29 colon cancer cells; HT29 cells, TNFα, Western blot)",cell permeability (HeLa cells) [%],Kd [5] [µM]
"CC[C@H](C)[C@@H]1NC(=O)[C@H](Cc2c[nH]c3ccccc23)NC(=O)CNC(=O)c2cc3cc(c2)C(=O)NC[C@@H](C(=O)NCCC(=O)NCCC(=O)N[C@@H](CCCCN)C(N)=O)NC(=O)[C@H](CCCNC(=N)N)NC(=O)[C@@H](CCCNC(=N)N)NC(=O)[C@H](CCCNC(=N)N)NC(=O)[C@H](Cc2ccc4ccccc4c2)NC(=O)[C@H](Cc2ccccc2)NC(=O)[C@H](CNC3=O)NC(=O)[C@H](C)NC(=O)[C@H](Cc2ccc(O)cc2)NC1=O [peptide 7, Tm(GWIYA)Δ(FΦRrRΔ)-BBK] (GWIYA[Dap]F[2Nal]R[dR]R[Dap][βAla][βAla]K-NH2; linker N-6-12 via Trimesoyl; C-terminus assumed)",no significant effect,10,intense green fluorescence inside all cells,did not inhibit,~ 1.5 fold,reduced the viability,5.9,dose-dependently inhibited,unchanged,no effect,increased,163,> 10
"RQIKIWFQNRRMKWKKGGTALDWSWLQTE [peptide 1, reference compound]",–,~41,–,–,–,–,–,–,–,–,–,–,–
